# In US11753407B2, “Compounds for treating spinal muscular atrophy” (PTC Therapeutics, Inc., priority 2012, dated 2023):
# Tests used:
# [1] = test system: Smn protein in SMA patient fibroblast cells (GM03813); test: Smn protein assay in cultured cells (SMN HTRF); assay type: cell-based, human; conditions: SMA patient fibroblast cells, 48 hours; for EC1.5x for Smn protein expression: 7-point concentration curve, SMN HTRF, concentration producing 1.5 times Smn protein vs DMSO vehicle control; for maximum fold (Fold) increase of Smn protein: 7-point concentration data, fold relative to vehicle control
# In short: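 SMA patient fibroblasts (5,000 cells/well, DMEM-10% FBS) were treated for 48 h at 37 °C with a 7-point, 3.16-fold dilution series in triplicate. RIPA lysates were probed by HTRF (anti-SMN d2/kryptate, overnight, room temperature), reading 665/620 nm. EC1.5× is the concentration giving 1.5-fold Smn over DMSO vehicle.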
# [2] = test system: SMN2 minigene mRNA (SMN2-A minigene) in HEK293H cells; test: SMN2 minigene mRNA splicing RT-qPCR assay in cultured cells; assay type: cell-based, human; conditions: Homo sapiens, HEK293-H; concentration increasing full length SMN2 mRNA 1.5-fold relative to vehicle-treated cells; HEK293H cells with SMN2-A minigene, 24 hours, 7-point concentration data; read-out: EC1.5x for production of full length SMN2 mRNA
# In short: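 HEK293H cells stably carrying the SMN2-A minigene were treated for 24 h at 37 °C with a 7-point, 3.16-fold dilution series of compound. Multiplex RT-qPCR measured exon 7-containing minigene FL mRNA against GAPDH, expressed relative to vehicle by modified ΔΔCt; the EC1.5× is the concentration giving a 1.5-fold increase.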
SMILES,EC1.5x for Smn protein expression [1],maximum fold (Fold) increase of Smn protein [1],EC (1.5-fold increase) [2] [µM]
"CCc1nc(C)cn2nc(-c3cc(=O)n4cc(C5CCN(C)CC5)cc(C)c4n3)cc12 [Compound 774, 2-(4-ethyl-6-methylpyrazolo[1,5-a]pyrazin-2-yl)-9-methyl-7-(1-methylpiperidin-4-yl)-4H-pyrido[1,2-a]pyrimidin-4-one]",**** (an EC1.5x≤0.3 μM is indicated by four stars (****)),***** (a fold increase >1.65 is indicated by five stars (*****)),< 0.1
"CCNC[C@@H]1CCN(c2ccc3nc(-c4cc5c(C)nc(C)cn5n4)cc(=O)n3c2)C1 [Compound 779, 2-(4,6-dimethylpyrazolo[1,5-a]pyrazin-2-yl)-7-{(3S)-3-[(ethylamino)methyl]pyrrolidin-1-yl}-4H-pyrido[1,2-a]pyrimidin-4-one]",**** (an EC1.5x≤0.3 μM is indicated by four stars (****)),***** (a fold increase >1.65 is indicated by five stars (*****)),< 0.1
"CCc1nc(C)cn2nc(-c3cc(=O)n4cc(C5CCN(CC)CC5)cc(C)c4n3)cc12 [Compound 790, 2-(4-ethyl-6-methylpyrazolo[1,5-a]pyrazin-2-yl)-7-(1-ethylpiperidin-4-yl)-9-methyl-4H-pyrido[1,2-a]pyrimidin-4-one]",**** (an EC1.5x≤0.3 μM is indicated by four stars (****)),***** (a fold increase >1.65 is indicated by five stars (*****)),< 0.1
"Cc1cn2cc(-c3cc(=O)n4cc(N5CCN(CCO)CC5)ccc4n3)cc(F)c2n1 [Compound 801, 2-(8-fluoro-2-methylimidazo[1,2-a]pyridin-6-yl)-7-[4-(2-hydroxyethyl)piperazin-1-yl]-4H-pyrido[1,2-a]pyrimidin-4-one]",*** (an EC1.5× between >0.3 μM and ≤1 μM is indicated by three stars (***)),***** (a fold increase >1.65 is indicated by five stars (*****)),0.1 to 0.3
"CN1CCN(c2ccc3nc(-c4ccc5nccn5c4)cc(=O)n3c2)CC1 [Compound 802, 2-(imidazo[1,2-a]pyridin-6-yl)-7-(4-methylpiperazin-1-yl)-4H-pyrido[1,2-a]pyrimidin-4-one]",* (An EC1.5× for Smn protein expression between >3 μM and ≤10 μM is indicated by one star (*)),***** (a fold increase >1.65 is indicated by five stars (*****)),1 to 3
"Cc1nc2c(F)cc(-c3cc(=O)n4cc(N5CCN6CCC[C@H]6C5)ccc4n3)cc2o1 [Compound 803, 2-(4-fluoro-2-methyl-1,3-benzoxazol-6-yl)-7-[(8aS)-hexahydropyrrolo[1,2-a]pyrazin-2(1H)-yl]-4H-pyrido[1,2-a]pyrimidin-4-one]",**** (an EC1.5x≤0.3 μM is indicated by four stars (****)),***** (a fold increase >1.65 is indicated by five stars (*****)),< 0.1
"Cc1cn2nc(-c3cc(=O)n4cc(N5CCC6(CC5)CNC6)ccc4n3)cc2c(C)n1 [Compound 804, 7-(2,7-diazaspiro[3.5]non-7-yl)-2-(4,6-dimethylpyrazolo[1,5-a]pyrazin-2-yl)-4H-pyrido[1,2-a]pyrimidin-4-one]",**** (an EC1.5x≤0.3 μM is indicated by four stars (****)),***** (a fold increase >1.65 is indicated by five stars (*****)),< 0.1
"Cc1nc2ccc(-c3cc(=O)n4cc(N5CCN(C)CC5)ccc4n3)cn2n1 [Compound 805, 7-(4-methylpiperazin-1-yl)-2-(2-methyl[1,2,4]triazolo[1,5-a]pyridin-6-yl)-4H-pyrido[1,2-a]pyrimidin-4-one]",*** (an EC1.5× between >0.3 μM and ≤1 μM is indicated by three stars (***)),***** (a fold increase >1.65 is indicated by five stars (*****)),0.1 to 0.3
"Cc1cn2cc(-c3cc(=O)n4cc(N5CCN(C)CC5)ccc4n3)cc(C(F)(F)F)c2n1 [Compound 806, 7-(4-methylpiperazin-1-yl)-2-[2-methyl-8-(trifluoromethyl)imidazo[1,2-a]pyridin-6-yl]-4H-pyrido[1,2-a]pyrimidin-4-one]",**** (an EC1.5x≤0.3 μM is indicated by four stars (****)),***** (a fold increase >1.65 is indicated by five stars (*****)),< 0.1
"Cc1cn2cc(-c3cc(=O)n4cc(N5CCN(C)CC5)ccc4n3)cc(C#N)c2n1 [Compound 807, 2-methyl-6-[7-(4-methylpiperazin-1-yl)-4-oxo-4H-pyrido[1,2-a]pyrimidin-2-yl]imidazo[1,2-a]pyridine-8-carbonitrile]",**** (an EC1.5x≤0.3 μM is indicated by four stars (****)),***** (a fold increase >1.65 is indicated by five stars (*****)),< 0.1
"Cc1cn2cc(-c3cc(=O)n4cc(N5CCN(C)CC5)ccc4n3)cc(C)c2n1 [Compound 808, 2-(2,8-dimethylimidazo[1,2-a]pyridin-6-yl)-7-(4-methylpiperazin-1-yl)-4H-pyrido[1,2-a]pyrimidin-4-one]",**** (an EC1.5x≤0.3 μM is indicated by four stars (****)),***** (a fold increase >1.65 is indicated by five stars (*****)),< 0.1
"Cc1cn2cc(-c3cc(=O)n4cc(N5CCNC6(CC6)C5)ccc4n3)cc(C)c2n1 [Compound 809, 7-(4,7-diazaspiro[2.5]oct-7-yl)-2-(2,8-dimethylimidazo[1,2-a]pyridin-6-yl)-4H-pyrido[1,2-a]pyrimidin-4-one]",**** (an EC1.5x≤0.3 μM is indicated by four stars (****)),***** (a fold increase >1.65 is indicated by five stars (*****)),< 0.1
"Cc1cn2cc(-c3cc(=O)n4cc(C5CCN(C)CC5)ccc4n3)cc(F)c2n1 [Compound 810, 2-(8-fluoro-2-methylimidazo[1,2-a]pyridin-6-yl)-7-(1-methylpiperidin-4-yl)-4H-pyrido[1,2-a]pyrimidin-4-one]",**** (an EC1.5x≤0.3 μM is indicated by four stars (****)),***** (a fold increase >1.65 is indicated by five stars (*****)),< 0.1
"Cc1cn2cc(-c3cc(=O)n4cc(C5(O)CCNCC5)ccc4n3)cc(F)c2n1 [Compound 811, 2-(8-fluoro-2-methylimidazo[1,2-a]pyridin-6-yl)-7-(4-hydroxypiperidin-4-yl)-4H-pyrido[1,2-a]pyrimidin-4-one]",*** (an EC1.5× between >0.3 μM and ≤1 μM is indicated by three stars (***)),***** (a fold increase >1.65 is indicated by five stars (*****)),0.3 to 1
"CCc1nc(C)cn2nc(-c3cc(=O)n4cc(N5CCN6CCC[C@H]6C5)ccc4n3)cc12 [Compound 812, 2-(4-ethyl-6-methylpyrazolo[1,5-a]pyrazin-2-yl)-7-[(8aS)-hexahydropyrrolo[1,2-a]pyrazin-2(1H)-yl]-4H-pyrido[1,2-a]pyrimidin-4-one]",**** (an EC1.5x≤0.3 μM is indicated by four stars (****)),***** (a fold increase >1.65 is indicated by five stars (*****)),< 0.1
"CCc1nc(C)cn2nc(-c3cc(=O)n4cc(N5CCN6CCC[C@@H]6C5)ccc4n3)cc12 [Compound 813, 2-(4-ethyl-6-methylpyrazolo[1,5-a]pyrazin-2-yl)-7-[(8aR)-hexahydropyrrolo[1,2-a]pyrazin-2(1H)-yl]-4H-pyrido[1,2-a]pyrimidin-4-one]",**** (an EC1.5x≤0.3 μM is indicated by four stars (****)),***** (a fold increase >1.65 is indicated by five stars (*****)),< 0.1
"CCc1nc(C)cn2nc(-c3cc(=O)n4cc(N5CC[C@@H](N(C)C)C5)ccc4n3)cc12 [Compound 814, 7-[(3R)-3-(dimethylamino)pyrrolidin-1-yl]-2-(4-ethyl-6-methylpyrazolo[1,5-a]pyrazin-2-yl)-4H-pyrido[1,2-a]pyrimidin-4-one]",**** (an EC1.5x≤0.3 μM is indicated by four stars (****)),***** (a fold increase >1.65 is indicated by five stars (*****)),< 0.1
"CCc1nc(C)cn2nc(-c3cc(=O)n4cc(N5CC[C@H](N(C)C)C5)ccc4n3)cc12 [Compound 815, 7-[(3S)-3-(dimethylamino)pyrrolidin-1-yl]-2-(4-ethyl-6-methylpyrazolo[1,5-a]pyrazin-2-yl)-4H-pyrido[1,2-a]pyrimidin-4-one]",**** (an EC1.5x≤0.3 μM is indicated by four stars (****)),***** (a fold increase >1.65 is indicated by five stars (*****)),< 0.1
"Cc1cn2cc(-c3cc(=O)n4cc(N5CCN6CCC[C@@]6(C)C5)ccc4n3)cc(F)c2n1 [Compound 816, 2-(8-fluoro-2-methylimidazo[1,2-a]pyridin-6-yl)-7-[(8aS)-8a-methylhexahydropyrrolo[1,2-a]pyrazin-2(1H)-yl]-4H-pyrido[1,2-a]pyrimidin-4-one]",**** (an EC1.5x≤0.3 μM is indicated by four stars (****)),**** (a fold increase between >1.5 and ≤1.65 is indicated by four stars (****)),< 0.1
